Data as given in the NIST ThermoML archive (doi:10.1021/je060271a).
Numbers after ± are expanded uncertainties.

Details: 323.15 K, Liquid, Vibrating tube method

CCCCCCCC(=O)OCC(COC(=O)CCCCCCC)(COC(=O)CCCCCCC)COC(=O)CCCCCCC [pentaerythritol tetraoctanoate]
Details	mass density [kg/m3]
1092.7 kPa	941.3 ± 1.1
1117.7 kPa	941.4 ± 1.1
1150.2 kPa	941.4 ± 1.1
1178 kPa	941.4 ± 1.1
1206.8 kPa	941.4 ± 1.1
1237.7 kPa	941.5 ± 1.1
1275.6 kPa	941.4 ± 1.1
1308.8 kPa	941.4 ± 1.1
1344.2 kPa	941.6 ± 1.1
1380.8 kPa	941.4 ± 1.1
1426.8 kPa	941.7 ± 1.1
1467.5 kPa	941.6 ± 1.1
1510.3 kPa	941.7 ± 1.1
1707.2 kPa	941.7 ± 1.1
1720.8 kPa	941.6 ± 1.1
1734.6 kPa	941.9 ± 1.1
1749 kPa	941.8 ± 1.1
1766.8 kPa	941.8 ± 1.1
1780.8 kPa	941.9 ± 1.1
1795.7 kPa	941.8 ± 1.2
1810.5 kPa	941.9 ± 1.1
1828.9 kPa	941.8 ± 1.2
1844.2 kPa	941.8 ± 1.1
1859.6 kPa	942 ± 1.1
1875.8 kPa	941.8 ± 1.2
1895.2 kPa	942 ± 1.1
1915.1 kPa	941.9 ± 1.1
1932.3 kPa	942 ± 1.1
1947.8 kPa	942 ± 1.1
1957.8 kPa	942 ± 1.1
1963.7 kPa	942 ± 1.1
1968.9 kPa	942 ± 1.1
1974 kPa	942 ± 1.1
1987.2 kPa	942.1 ± 1.1
2016.7 kPa	941.9 ± 1.1
2142.1 kPa	942 ± 1.1
2259.4 kPa	942.1 ± 1.2
2339.7 kPa	942.1 ± 1.2
2352.9 kPa	942.3 ± 1.2
2366.5 kPa	942.3 ± 1.1
2382.6 kPa	942.2 ± 1.2
2409.7 kPa	942.5 ± 1.1
2426.8 kPa	942.3 ± 1.2
2441.1 kPa	942.3 ± 1.2
2454.6 kPa	942.4 ± 1.1
2468.6 kPa	942.2 ± 1.1
2486 kPa	942.4 ± 1.2
2500.4 kPa	942.4 ± 1.2
2515.6 kPa	942.2 ± 1.1
2533.2 kPa	942.4 ± 1.1
2546 kPa	942.5 ± 1.1
2554.1 kPa	942.4 ± 1.2
2597 kPa	942.4 ± 1.1
2605 kPa	942.4 ± 1.1
2612.9 kPa	942.4 ± 1.1
2622.5 kPa	942.4 ± 1.2
2630.8 kPa	942.4 ± 1.2
2639.1 kPa	942.4 ± 1.1
2648.3 kPa	942.4 ± 1.1
2656.5 kPa	942.4 ± 1.1
2664.8 kPa	942.5 ± 1.1
2674.9 kPa	942.5 ± 1.1
2683.4 kPa	942.5 ± 1.2
2692.2 kPa	942.4 ± 1.2
2701.1 kPa	942.4 ± 1.1
2709.7 kPa	942.4 ± 1.1
2720 kPa	942.5 ± 1.2
2728.5 kPa	942.4 ± 1.2
2737.3 kPa	942.5 ± 1.1
2746.3 kPa	942.5 ± 1.2
2756.7 kPa	942.6 ± 1.2
2765.4 kPa	942.6 ± 1.2
2775.6 kPa	942.5 ± 1.2
2784.8 kPa	942.5 ± 1.2
2793.7 kPa	942.6 ± 1.2
2803.2 kPa	942.6 ± 1.2
2814.5 kPa	942.5 ± 1.2
2821.9 kPa	942.6 ± 1.2
2832.7 kPa	942.6 ± 1.2
2841.7 kPa	942.5 ± 1.2
2852.6 kPa	942.6 ± 1.2
2862.2 kPa	942.5 ± 1.2
2871.5 kPa	942.6 ± 1.2
2880.9 kPa	942.6 ± 1.2
2892.2 kPa	942.6 ± 1.2
2901.4 kPa	942.6 ± 1.2
2911.2 kPa	942.6 ± 1.2
2922.7 kPa	942.6 ± 1.2
2932.2 kPa	942.6 ± 1.2
2944 kPa	942.6 ± 1.2
2953.7 kPa	942.6 ± 1.2
2963.9 kPa	942.6 ± 1.2
2974 kPa	942.7 ± 1.2
2983.7 kPa	942.7 ± 1.2
2995.7 kPa	942.7 ± 1.2
3005.6 kPa	942.6 ± 1.2
3016 kPa	942.6 ± 1.2
3027.9 kPa	942.7 ± 1.2
3038.3 kPa	942.7 ± 1.2
3048.7 kPa	942.7 ± 1.2
3059.1 kPa	942.7 ± 1.2
3071.6 kPa	942.8 ± 1.2
3082 kPa	942.7 ± 1.2
3092.6 kPa	942.7 ± 1.2
3105.1 kPa	942.7 ± 1.2
3115.6 kPa	942.8 ± 1.2
3128.6 kPa	942.7 ± 1.2
3139.4 kPa	942.6 ± 1.2
3150.3 kPa	942.7 ± 1.2
3159 kPa	942.7 ± 1.2
3173.9 kPa	942.8 ± 1.2
3185.2 kPa	942.8 ± 1.2
3196.4 kPa	942.8 ± 1.2
3207.5 kPa	942.8 ± 1.2
3220.5 kPa	942.8 ± 1.2
3232.3 kPa	942.8 ± 1.2
3243.6 kPa	942.8 ± 1.2
3257.1 kPa	942.9 ± 1.2
3268.7 kPa	942.8 ± 1.2
3280 kPa	942.8 ± 1.2
3291.9 kPa	942.9 ± 1.2
3306.1 kPa	942.9 ± 1.2
3317.8 kPa	942.8 ± 1.2
3329.5 kPa	942.9 ± 1.2
3343.6 kPa	942.8 ± 1.2
3355.4 kPa	942.9 ± 1.2
3367.5 kPa	943 ± 1.2
3380.2 kPa	943 ± 1.2
3392.6 kPa	943.1 ± 1.2
3407.2 kPa	943 ± 1.2
3419.3 kPa	942.9 ± 1.2
3431.8 kPa	943.1 ± 1.2
3446.7 kPa	943 ± 1.2
3459.2 kPa	942.9 ± 1.2
3469.6 kPa	942.9 ± 1.2
3479.3 kPa	943 ± 1.2
3494.5 kPa	942.9 ± 1.2
3507.4 kPa	943 ± 1.2
3540.6 kPa	943 ± 1.2
3553.8 kPa	942.9 ± 1.2
3567 kPa	943.1 ± 1.2
3580 kPa	943.1 ± 1.2
3710.3 kPa	943.1 ± 1.2
3724.8 kPa	943.2 ± 1.2
3743.3 kPa	943 ± 1.2
3756.8 kPa	943.3 ± 1.2
3771.5 kPa	943.2 ± 1.2
